# Assay results taken from patent US20240058373A1, “FIBRE MIXTURE FOR YOUNG CHILDREN” (N.V. Nutricia, priority 2020, published 2024).
# Tested on: standard human gut microbiota pool
# Assay: i-screen fermentation of fibres by faecal microbiota: pH and SCFA/BCFA formation
# Type: cell-based
# Details: after 24 h of fermentation in SIEM medium at 37° C., fibres 10 mg/ml
# Text: For studying fermentation of fibres by microbiota the i-screen platform was used, see Schuren et al., The i-screen: A Versatile Preclinical Platform for Gut Microbiota Studies, J Prob Health 2019 7:212. A standard human gut microbiota pool was used for the fermentation. This pool was established via fecal donations from 6 healthy volunteers (Caucasian individuals, age 25-60 years, no antibiotic use in the 3 months preceding the donation, self-assessment of health status). Before starting the i-screen fermentation with the test compounds, the standardized fecal pool was incubated in SIEM (standard ileal effluent medium) under anaerobic conditions overnight (37° C.; 300 rpm) in order to activate the bacteria.
# The fibres were tested at a concentration of 10 mg/ml. All compounds were tested in triplicate.
# The following conditions were applied: • 1 No added fibres, SIEM medium only • 2 Mixture of beta-galactooligosaccharides (Vivinal GOS, Friesland Campina), inulin (Orafti HP (Beneo-Orafti Orey) Beneo BE), resistant starch (Novelose 330 (Ingredion UK Ltd) and non-soluble soy polysaccharides, source Fibrim 2000 (DuPont/Danisco) in a weight ratio of 38:38:4:20, prior art MF4 • 3 Mixture of beta-galactooligosaccharides (Vivinal GOS, Friesland Campina), inulin (Orafti HP (Beneo-Orafti Orey) Beneo BE), resistant starch (Novelose 330 (Ingredion UK Ltd) and soluble soy polysaccharides, source Soyafibe-S-Ca100 (Fuji Oil Co, Ltd), in a weight ratio of 38:38:4:20, new MF4 • 4 Lactulose (Duphalac Lactulose, Solvay, the Netherlands)
# After 24 hours of fermentation in SIEM medium at 37° C., samples were collected for pH measurements, DNA isolation and for metabolite analysis. The remaining material was stored at −20° C.
# DNA was isolated as described by Ladirat et al. J Microbiol Meth 2013, 92(3), 387-397 with some minor adjustments: the samples were initially mixed with 300 μl lysis buffer (Agowa, Berlin, Germany), 500 μl zirconium beads (0.1 mm), and 500 μl phenol, before being introduced to a Bead Beater (BioSpec Products, Bartlesville, OK, USA) for 3 min. 16S amplicon sequencing DNA was analyzed by using 16S rDNA amplicon sequencing. The V4 hypervariable region was targeted. […] Amplicon quality and size were analyzed on a Fragment Analyzer (Advanced Analytical Technologies, Inc.). […] SCFA covering acetate, propionate, and n-butyrate and branched chain fatty acids (BCFA) covering iso-butyrate and iso-valerate were analyzed as described by as described by Van Nuenen Microbiology in Health and Disease 2003, 15: 137-144. […]
# For the analysis of total lactate, material resulting from the i-screen fermentation was sampled and centrifuged at 4,000 g for 5 minutes. […] The D- and L-lactate were determined by the Arena 20XL analyser. […]
smiles,measurement,setting,value
"OC[C@H]1O[C@@H](O[C@@H]2[C@@H](CO)OC(O)(CO)[C@H]2O)[C@H](O)[C@@H](O)[C@H]1O (mixture of isomers) [lactulose, Lactulose]",Mean Butyrate,,49.39 mM
same,Mean Propionate,,6.61 mM
same,Mean Acetate,value (s.d.),44.93 (1.40) mM
same,Mean Total SCFA,value (s.d.),100.9 (2.67) mM
